Test results from PMC9695642, “Conservation of Importin α Function in Apicomplexans: Ivermectin and GW5074 Target Plasmodium falciparum Importin α and Inhibit Parasite Growth in Culture” (International Journal of Molecular Sciences, 2022).
“And” between values parts separate entries of the source, which are not always exact repeats. Equal entries are not always repeated. Where two headings read alike, the source gives them in different places.

Assays:
PfIMPα [1] = biological target: T1, PfIMPα (Plasmodium falciparum, UniProt Q8IAW0); test: AlphaScreen inhibition of PfIMPα binding to TGS1-NLS-GFP
Source text: (§1) Inhibitors of mammalian IMPα function are of key interest as anti-infectious agents. One of the first described is the small molecule macrocyclic lactone ivermectin, produced by the bacterium Streptomyces avermitilis, that is approved by the US Food and Drug Administration for parasitic infections. […] Chemically distinct from ivermectin, GW5074 (3-(3,5-dibromo-4-hydroxybenzyliden)-5-iodo-1,3-dihydroindol-2-one) binds to mammalian IMPα with analogous structural effects on IMPα and inhibitory effects on NLS recognition/IMPβ1 binding by IMPα [24]. […] We set out to test the activity of these inhibitors with respect to NLS binding by PfIMPα and TgIMPα, with NLS binding by MmIMPα analysed in parallel (Figure 3; Table 3). As expected, ivermectin and GW5074 inhibited MmΔIBBIMPα-SV40 T-ag with IC50 values of 5–6 µM, consistent with published data. […] The results clearly indicate that chemical inhibitors known to target mammalian IMPα can inhibit apicomplexan IMPα, underlining the structural and functional conservation of IMPα from apicomplexans to mammalian systems.
(§2) Figure 3 Ivermectin and GW5074 inhibit IMPα-NLS interaction at low micromolar concentration. AlphaScreen technology was used to determine the IC50 for inhibition by ivermectin and GW5074 binding of IMPαs (5 nM) to NLS (30 nM). Data represent the mean ± SEM for quadruplet wells from a single experiment, from a series of 3 independent experiments (see Table 3 for pooled data).
(§3) PfIMPα, TgIMPα, MmIMPα, ΔIBBMmIMPα, and MmIMPβ1 GST fusion proteins were expressed and purified essentially as previously. His-tagged T-ag-NLS-GFP, TGS1-NLS-GFP, GCN5-NLS-GFP, PfIMPα, and TgIMPα proteins were all purified using Ni^2+-affinity chromatography, as previously. Biotinylation of GST-tagged proteins was carried out using the Sulfo-NHS-Biotin reagent (Pierce, Rockford, IL, USA), as described previously. The AlphaScreen binding assay was performed as previously.

PfIMPα:MmIMPβ1 = PfIMPα:MmIMPβ1 (Plasmodium falciparum, UniProt Q8IAW0); test: AlphaScreen inhibition of PfIMPα binding to MmIMPβ1
Source text: (§4) As indicated, both ivermectin and GW5074 have been previously shown to inhibit interaction between mammalian IMPα and IMPβ1 [24, 32]. We tested their activity towards apicomplexan IMPα (Figure 4; Table 4). As previously observed, binding of MmIMPα:MmIMPβ1 was inhibited strongly by both agents, with IC50 values of c. […] Clearly, ivermectin and GW5074 are able to act on apicomplexan IMPα in analogous fashion to MmIMPα in terms of the ability to bind to IMPβ1, the results further underlining the structural and functional conservation of IMPα from apicomplexans to mammalian systems.
(§5) Figure 4 Ivermectin and GW5074 inhibit IMPα–IMPβ interaction. AlphaScreen technology was used to determine the IC50 for inhibition by ivermectin and GW5074-binding of IMPβ (30 nM) to IMPαs (30 nM). Data represent the mean ± SEM for quadruplet wells from a single experiment, from a series of three independent experiments (see Table 4 for pooled data).
as §3

TgIMPα:MmIMPβ1 = TgIMPα:MmIMPβ1 (Toxoplasma gondii, UniProt A0A125YID0); test: AlphaScreen inhibition of TgIMPα binding to MmIMPβ1
Source text: as §4, §5, §3

PfIMPα [2] = biological target: T1, PfIMPα; test: Far-UV CD spectroscopy, α-helical content of PfIMPα with compound; format: binding; conditions: PfIMPα alone c. 63 % α-helical
Protocol: Previous analysis for MmIMPα using several biophysical approaches had established that the mechanism by which both ivermectin and GW5074 have an impact on NLS and IMPβ1 binding by MmIMPα is by direct binding to the ARM repeat domain of IMPα to perturb structural conformation. […] 63 % α-helical, compared to c. 70 % for MmIMPα (Figure 5b).
CD spectra were also analysed in the presence of increasing concentrations of ivermectin and GW5074, with both agents having a marked impact on the structure, especially at high concentrations (Figure 5a,b), consistent with the idea that both bind to the proteins directly to perturb structure. PfIMPα appeared to be particularly susceptible to both agents, with 30 µM GW5074 reducing α-helicity by more than a half (Figure 5a,b) to a residual value of 30%, which fell below 10% in the presence of 80 µM GW5074. […] 20% at 80 µM. The results, overall, indicate that both ivermectin and GW5074 can bind to and destabilise the structure of both PfIMPα and TgIMPα in analogous fashion to their known effects on mammalian IMPα, further underlining the conservation of structure and function between apicomplexan and mammalian IMPαs.
Figure 5 CD spectra for apicomplexan and mammalian IMPαs in the absence and presence of ivermectin and GW5074. CD spectra were collected for PfIMPα, TgIMPα, and MmIMPα in the absence or presence of 30 μM and 80 μM ivermectin and GW5074. (a) Spectra shown are from a single experiment, representative of two independent experiments for 30 μM concentration of ivermectin and GW5074. Note: θ is ellipticity. […]
CD spectroscopy was used to study the binding of ivermectin and GW5074 to PfIMPα, TgIMPα and MmIMPα, as previously described. CD spectra of the proteins at 0.1 mg/mL concentration were recorded from 200–260 nm using Jasco CD spectrometer (Jasco, Portland, OR, USA). CD spectra of the IMPαs were also measured in the presence of 30 µM and 80 µM concentrations of the ivermectin and GW5074 compounds. Percentage α-helix content was calculated from the ellipticity at 222 nm as described in [51]. […]

TgIMPα = TgIMPα (Toxoplasma gondii, UniProt A0A125YID0); test: AlphaScreen inhibition of TgIMPα binding to T-ag-NLS-GFP
Source text: as §1, §2, §3

P. falciparum 3D7 strain = test: P. falciparum growth inhibition, HRP2-based sandwich ELISA; format: cell-based, Plasmodium falciparum
Source text: To test the potential antimalarial action of GW5074, we compared the activity of GW5074 to ivermectin against the asexual stages of P. falciparum parasites, using an established HRP2-based (histidine-rich protein 2) ELISA [38, 39, 40]. The assay uses a sandwich ELISA to measure HRP2 levels as an indicator of parasite growth; the clinically prescribed drug dihydroartemisinin (DHA) was used as a positive control.
Figure 6 Ivermectin and GW5074 inhibit P. falciparum parasites in culture at low µM concentrations. P. falciparum cultures (0.25% parasitemia) were treated with increasing concentrations of the indicated compounds for 72 h, after which the HRP2-based sandwich ELISA was used to measure the HRP2 levels, determined by optical density. The results shown are from a single typical experiment performed in duplicate (SD shown), representative of a series of three independent experiments (see Table 5 for pooled data).
P. falciparum 3D7 strain was cultured and maintained in human red blood cells (RBCs) using RPMI (Roswell Park Memorial Institute) 1640 medium supplemented with 0.5% Albumax (GibcoTM, Waltham, MA, USA), 50 mg/L hypoxanthine (Sigma-Aldrich, St. Louis, MO, USA), 2 g/L D-glucose (Sigma-Aldrich, St. Louis, MO, USA), 2 g/L sodium bicarbonate (Sigma-Aldrich, St. Louis, MO, USA), and 56 mg/L of gentamicin (Abbott, Chicago, IL, USA) at 37 °C in 5% CO2 in a humidified incubator, according to the standard procedures. Cultures presynchronised using 5% D-sorbitol (Sigma-Aldrich, St. Louis, MO, USA) to obtain predominantly the ring stage of the P. falciparum life cycle were used for the growth assays, as previously. DHA (a gift from IPCA Laboratories, Mumbai, India) was used as a control. Growth assays in the absence and presence of inhibitors were performed using the HRP2 sandwich horseradish peroxidase-linked immunosorbent assay that measures HRP2 levels as an indicator of growth.

MmΔIBBIMPα = biological target: T2, MmΔIBBIMPα (Mus musculus, UniProt P52293); test: AlphaScreen inhibition of MmΔIBBIMPα binding to T-ag-NLS-GFP
T2 construct: GST; made in house
Source text: as §1, §2, §3

MmIMPα:MmIMPβ1 = biological target: T3, MmIMPα:MmIMPβ1 (Mus musculus, UniProt P52293); test: AlphaScreen inhibition of MmIMPα binding to MmIMPβ1
T3 construct: His; made in house
Source text: as §4, §5, §3

[3] = AlphaScreen, IMPα 5 nM, NLS 30 nM, pooled mean ± SEM (n = 3), read-out: IC50, inhibition of PfIMPα:TGS1 NLS binding
[4] = single experiment of a series of 3, read-out: IC50, PfIMPα:TGS1-NLS-GFP (Figure 3)
[5] = AlphaScreen, IMPβ 30 nM, IMPα 30 nM, pooled mean ± SEM (n = 3), read-out: IC50, inhibition of PfIMPα:MmIMPβ1 binding
[6] = single experiment of a series of three, read-out: IC50, PfIMPα:MmIMPβ1 (Figure 4)
[7] = AlphaScreen, IMPβ 30 nM, IMPα 30 nM, pooled mean ± SEM (n = 3), read-out: IC50, inhibition of TgIMPα:MmIMPβ1 binding
[8] = single experiment of a series of three, read-out: IC50, TgIMPα:MmIMPβ1 (Figure 4)
[9] = AlphaScreen, IMPα 5 nM, NLS 30 nM, pooled mean ± SEM (n = 3), read-out: IC50, inhibition of TgIMPα:SV40 T-ag NLS binding
[10] = single experiment of a series of 3, read-out: IC50, TgIMPα:T-ag-NLS-GFP (Figure 3)
[11] = Plasmodium falciparum, 3D7, 72 h, 72 h, single typical experiment in duplicate, read-out: IC50, P. falciparum growth (Figure 6)
[12] = Plasmodium falciparum, 3D7, 72 h, asexual stages, 72 h, pooled mean ± SD (n = 3), read-out: IC50, inhibition of growth of P. falciparum parasites in culture
[13] = asexual stages, 72 h, pooled mean ± SD (n = 3), read-out: IC50, inhibition of growth of P. falciparum parasites in culture
[14] = AlphaScreen, IMPα 5 nM, NLS 30 nM, pooled mean ± SEM (n = 3), read-out: IC50, inhibition of ΔIBBmIMPα:SV40 T-ag NLS binding
[15] = single experiment of a series of 3, read-out: IC50, MmΔIBBIMPα:T-ag-NLS-GFP (Figure 3)
[16] = AlphaScreen, IMPβ 30 nM, IMPα 30 nM, pooled mean ± SEM (n = 3), read-out: IC50, inhibition of MmIMPα:MmIMPβ1 binding
[17] = single experiment of a series of three, read-out: IC50, MmIMPα:MmIMPβ1 (Figure 4)

Compound	IC50 (PfIMPα [1]; [3]) [µM]	IC50 (PfIMPα [1]; [4]) [µM]	IC50 (PfIMPα:MmIMPβ1; [5]) [µM]	IC50 (PfIMPα:MmIMPβ1; [6]) [µM]	IC50 (TgIMPα:MmIMPβ1; [7]) [µM]	IC50 (TgIMPα:MmIMPβ1; [8]) [µM]	residual α-helicity of PfIMPα (PfIMPα [2]; 80 µM compound)	IC50 (TgIMPα; [9]) [µM]	IC50 (TgIMPα; [10]) [µM]	IC50 (P. falciparum 3D7 strain; [11]) [µM]	IC50 (P. falciparum 3D7 strain; [12]) [µM]	IC50 (P. falciparum 3D7 strain; [13]) [µM]	IC50 (MmΔIBBIMPα; [14]) [µM]	IC50 (MmΔIBBIMPα; [15]) [µM]	IC50 (MmIMPα:MmIMPβ1; [16])	IC50 (MmIMPα:MmIMPβ1; [17]) [µM]	further results
O=C1Nc2ccc(I)cc2C1=Cc1cc(Br)c(O)c(Br)c1 [GW5074, 3-(3,5-dibromo-4-hydroxybenzyliden)-5-iodo-1,3-dihydroindol-2-one]	6.5 ± 0.4	6	41 ± 1.5	39	11 ± 1.5	13	below 10%	7.7 ± 1.9	5.4	6.5	~6	5.5 ± 0.9	4.9 ± 1.4	2.2	~22 µM and 22 µM	23	residual α-helicity of PfIMPα (PfIMPα [2]; 30 µM compound): 30%
ivermectin	5 ± 1.3	2.4	1.9 ± 0.2	1.5	6.9 ± 1.2	5.4	~20%	4.9 ± 0.2	5.2			0.7 ± 0.1	6.2 ± 0.2	6.3	3.1 ± 0.5 µM	3.9	IC50 (PfIMPα:MmIMPβ1; AlphaScreen, IMPβ 30 nM, IMPα 30 nM, pooled mean ± SEM (n = 3), listed as ivermectin, read-out: IC50, inhibition of PfIMPα:MmIMPβ1 binding): 2 to 7 µM; IC50 (TgIMPα:MmIMPβ1; AlphaScreen, IMPβ 30 nM, IMPα 30 nM, pooled mean ± SEM (n = 3), listed as ivermectin, read-out: IC50, inhibition of TgIMPα:MmIMPβ1 binding): 2 to 7 µM; IC50 (TgIMPα; AlphaScreen, IMPα 5 nM, NLS 30 nM, pooled mean ± SEM (n = 3), listed as ivermectin, read-out: IC50, inhibition of TgIMPα:SV40 T-ag NLS binding): 5 µM; IC50 (P. falciparum 3D7 strain; 72 h, single typical experiment in duplicate, read-out: IC50, P. falciparum growth (Figure 6)): 1 µM; IC50 (P. falciparum 3D7 strain; asexual stages, 72 h, pooled mean ± SD (n = 3), listed as ivermectin, read-out: IC50, inhibition of growth of P. falciparum parasites in culture): ~1 µM; IC50 (MmΔIBBIMPα; AlphaScreen, IMPα 5 nM, NLS 30 nM, pooled mean ± SEM (n = 3), listed as ivermectin, read-out: IC50, inhibition of ΔIBBmIMPα:SV40 T-ag NLS binding): 5 to 6 µM; IC50 (MmIMPα:MmIMPβ1; AlphaScreen, IMPβ 30 nM, IMPα 30 nM, pooled mean ± SEM (n = 3), listed as ivermectin, read-out: IC50, inhibition of MmIMPα:MmIMPβ1 binding): ~3 µM
C[C@H]1[C@@H](O)O[C@@H]2O[C@@]3(C)CC[C@H]4[C@H](C)CC[C@@H]1[C@@]24OO3 [DHA, dihydroartemisinin]										0.0007	0.001 ± 0.0005						IC50 (P. falciparum 3D7 strain; Plasmodium falciparum, 3D7, asexual stages, approximate value, read-out: IC50, P. falciparum growth): ~0.001 µM
